In the supplement of paper PMC10307832:

Columns and labels:
Assay in all cases: relative viability (nuclei count vs DMSO), 5 days (fraction); higher = more cells survive
[1] = system: CAL-12T
How it was run: (§1)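 Lung cancer cell lines, seeded in 1536-well plates, were treated the following day by pin tool with a single drug or with five library-drug doses (not always all listed) in √10 steps on top of a fixed anchor-drug dose. Cells were fixed and nuclei stained in one step after 5 days, and nuclei were counted. Relative viability is the nuclei count for treated wells divided by that for vehicle wells, reported as medians of duplicate plates.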

[2] = system: EKVX
How it was run: as §1

[3] = system: H3255
How it was run: as §1

[4] = system: HCC-15
How it was run: as §1

[5] = system: HCC-827
How it was run: as §1

[6] = system: LCLC-97TM1
How it was run: as §1

[7] = system: LK-2
How it was run: as §1

[8] = system: NCI-H1355
How it was run: as §1

[9] = system: NCI-H1563
How it was run: as §1

[10] = system: NCI-H1650
How it was run: as §1

[11] = system: NCI-H1734
How it was run: as §1

[12] = system: NCI-H1755
How it was run: as §1

[13] = system: NCI-H1975
How it was run: as §1

[14] = system: NCI-H2228
How it was run: as §1

[15] = system: NCI-H2405
How it was run: as §1

[16] = system: NCI-H322M
How it was run: as §1

[17] = system: NCI-H520
How it was run: as §1

[18] = system: NCI-H661
How it was run: as §1

[19] = system: PC-14
How it was run: as §1

[20] = system: PC-3 [JPC-3]
How it was run: as §1

[21] = system: RERF-LC-KJ
How it was run: as §1

Cc1sc2c(c1C)C(c1ccc(Cl)cc1)=N[C@@H](CC(=O)OC(C)(C)C)c1nnc(C)n1-2 [JQ1] + CS(=O)(=O)CCNCc1ccc(-c2ccc3ncnc(Nc4ccc(OCc5cccc(F)c5)c(Cl)c4)c3c2)o1 [Lapatinib] (partner 2 µM)
relative viability ([1]; first compound 0.04 µM): 0.748
relative viability ([1]; first compound 0.4 µM): 0.541
relative viability ([1]; first compound 1.265 µM): 0.383
relative viability ([1]; first compound 4 µM): 0.463
relative viability ([2]; first compound 0.04 µM): 0.256
relative viability ([2]; first compound 0.1265 µM): 0.269
relative viability ([2]; first compound 0.4 µM): 0.244
relative viability ([2]; first compound 1.265 µM): 0.226
relative viability ([2]; first compound 4 µM): 0.141
relative viability ([3]; first compound 0.04 µM): 0.226
relative viability ([3]; first compound 0.1265 µM): 0.251
relative viability ([3]; first compound 0.4 µM): 0.248
relative viability ([3]; first compound 1.265 µM): 0.169
relative viability ([3]; first compound 4 µM): 0.227
relative viability ([4]; first compound 0.04 µM): 0.778
relative viability ([4]; first compound 0.4 µM): 0.85
relative viability ([4]; first compound 1.265 µM): 0.655
relative viability ([4]; first compound 4 µM): 0.592
relative viability ([5]; first compound 0.04 µM): 0.206
relative viability ([5]; first compound 0.4 µM): 0.21
relative viability ([5]; first compound 1.265 µM): 0.189
relative viability ([5]; first compound 4 µM): 0.202
relative viability ([6]; first compound 0.1265 µM): 0.805
relative viability ([6]; first compound 0.4 µM): 0.781
relative viability ([6]; first compound 1.265 µM): 0.243
relative viability ([6]; first compound 4 µM): 0.252
relative viability ([7]; first compound 0.04 µM): 0.886
relative viability ([7]; first compound 0.1265 µM): 0.896
relative viability ([7]; first compound 0.4 µM): 0.456
relative viability ([7]; first compound 1.265 µM): 0.177
relative viability ([7]; first compound 4 µM): 0.286
relative viability ([8]; first compound 0.04 µM): 0.967
relative viability ([8]; first compound 0.1265 µM): 0.973
relative viability ([8]; first compound 0.4 µM): 0.956
relative viability ([8]; first compound 1.265 µM): 0.765
relative viability ([8]; first compound 4 µM): 0.596
relative viability ([9]; first compound 0.04 µM): 0.89
relative viability ([9]; first compound 0.1265 µM): 0.72
relative viability ([9]; first compound 0.4 µM): 0.662
relative viability ([9]; first compound 1.265 µM): 0.717
relative viability ([9]; first compound 4 µM): 0.771
relative viability ([10]; first compound 0.04 µM): 0.704
relative viability ([10]; first compound 0.1265 µM): 0.469
relative viability ([10]; first compound 0.4 µM): 0.316
relative viability ([10]; first compound 1.265 µM): 0.204
relative viability ([10]; first compound 4 µM): 0.253
relative viability ([11]; first compound 0.04 µM): 1.08
relative viability ([11]; first compound 0.1265 µM): 0.908
relative viability ([11]; first compound 0.4 µM): 1.03
relative viability ([11]; first compound 1.265 µM): 0.657
relative viability ([11]; first compound 4 µM): 1.04
relative viability ([12]; first compound 0.04 µM): 1.06
relative viability ([12]; first compound 0.1265 µM): 0.735
relative viability ([12]; first compound 0.4 µM): 1.05
relative viability ([12]; first compound 1.265 µM): 0.853
relative viability ([12]; first compound 4 µM): 0.607
relative viability ([13]; first compound 0.04 µM): 0.85
relative viability ([13]; first compound 0.1265 µM): 0.551
relative viability ([13]; first compound 0.4 µM): 0.565
relative viability ([13]; first compound 1.265 µM): 0.351
relative viability ([13]; first compound 4 µM): 0.333
relative viability ([14]; first compound 0.04 µM): 0.902
relative viability ([14]; first compound 0.1265 µM): 0.876
relative viability ([14]; first compound 0.4 µM): 0.751
relative viability ([14]; first compound 1.265 µM): 0.374
relative viability ([14]; first compound 4 µM): 0.327
relative viability ([15]; first compound 0.04 µM): 1.19
relative viability ([15]; first compound 0.4 µM): 1.12
relative viability ([15]; first compound 1.265 µM): 0.587
relative viability ([15]; first compound 4 µM): 0.485
relative viability ([16]; first compound 0.04 µM): 0.634
relative viability ([16]; first compound 0.1265 µM): 0.658
relative viability ([16]; first compound 0.4 µM): 0.572
relative viability ([16]; first compound 1.265 µM): 0.506
relative viability ([16]; first compound 4 µM): 0.467
relative viability ([17]; first compound 0.04 µM): 0.874
relative viability ([17]; first compound 0.1265 µM): 0.895
relative viability ([17]; first compound 0.4 µM): 0.716
relative viability ([17]; first compound 1.265 µM): 0.264
relative viability ([17]; first compound 4 µM): 0.243
relative viability ([18]; first compound 0.04 µM): 0.402
relative viability ([18]; first compound 0.1265 µM): 0.527
relative viability ([18]; first compound 0.4 µM): 0.339
relative viability ([18]; first compound 1.265 µM): 0.27
relative viability ([18]; first compound 4 µM): 0.321
relative viability ([19]; first compound 0.04 µM): 0.307
relative viability ([19]; first compound 0.1265 µM): 0.245
relative viability ([19]; first compound 0.4 µM): 0.352
relative viability ([19]; first compound 1.265 µM): 0.284
relative viability ([19]; first compound 4 µM): 0.211
relative viability ([20]; first compound 0.04 µM): 0.488
relative viability ([20]; first compound 0.1265 µM): 0.529
relative viability ([20]; first compound 0.4 µM): 0.432
relative viability ([20]; first compound 1.265 µM): 0.412
relative viability ([20]; first compound 4 µM): 0.411
relative viability ([21]; first compound 0.04 µM): 0.807
relative viability ([21]; first compound 0.1265 µM): 0.856
relative viability ([21]; first compound 0.4 µM): 0.89
relative viability ([21]; first compound 1.265 µM): 0.781
relative viability ([21]; first compound 4 µM): 0.595
